Drawing on patent publication US11883387B2, “PqsR inverse agonists” (HELMHOLTZ-ZENTRUM FÜR INFEKTIONSFORSCHUNG GMBH, priority 2018, dated 2024), this text covers IC50 for 35 compounds.

PqsR, sequence (Q9I4X0 whole entry): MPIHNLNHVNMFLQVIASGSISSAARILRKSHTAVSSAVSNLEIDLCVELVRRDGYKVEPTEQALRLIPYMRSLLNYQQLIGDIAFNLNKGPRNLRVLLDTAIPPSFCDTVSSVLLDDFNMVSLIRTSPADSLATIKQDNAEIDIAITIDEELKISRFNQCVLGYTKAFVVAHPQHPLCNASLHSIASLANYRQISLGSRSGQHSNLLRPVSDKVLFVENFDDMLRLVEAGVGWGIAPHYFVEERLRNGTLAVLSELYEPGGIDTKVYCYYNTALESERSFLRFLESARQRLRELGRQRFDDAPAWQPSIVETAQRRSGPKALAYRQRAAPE

This test addresses PqsR (Pseudomonas aeruginosa, UniProt Q9I4X0). As to the kind of experiment: E. coli based β-galactosidase reporter gene assay (PqsR inverse agonistic activity). The class given is cell-based. Also on record: expressed in transfected cells; host or cells: Escherichia coli DH5α. As to the method:
Inhibition of pqsR-dependent gene expression of test compounds was determined in an E. coli based β-galactosidase reporter gene assay.[19] Escherichia coli DH5α was transfected with pEAL08-2 plasmid encoding pqsR under control of promoter tac and β-galactosidase reporter gene lacZ under control of promoter pqsA. Antagonistic effects of compounds were evaluated in the presence of/in competition to 50 nM PQS. A positive control was used to ensure the reliability of individual assays. First, PQS was diluted in methanol and added to the wells of a glass coated 96-deep-well plate, and the solvent was evaporated. Then, compounds were added in 5 μL DMSO to final concentrations of 0.001-10 μM. Overnight cultures of E. coli DH5a×pEAL08-2 were diluted 1:100 in LB medium with ampicillin (50 μg/ml) and incubated at 37° C. with shaking until it reached an OD600 of 0.2. Finally, 995 μL of culture was added to each well and the p-galactosidase activity was determined by ortho-nitrophenyl-p-galactoside conversion in permeabilized cells after a 2.5 h incubation period (37° C., 180 rpm). OD600, OD420, and OD550 were measured using POLARstar Omega (BMG Labtech, Ortenberg, Germany), and the activity was expressed as ratio of the slope of β-galactosidase activity between basal control (no PQS) and solvent control. IC50 values of antagonists were determined by variation of the concentration of the test compounds.
The compound `FC(F)(F)c1cc(NCc2cn(-c3cccc(CN4CCOCC4)c3)nn2)ccn1` [Compound 002, N-((1-(3-(Morpholinomethyl)phenyl)-1H-1,2,3-triazol-4-yl)methyl)-2-(trifluoromethyl)pyridin-4-amine] returned an IC50 of 0.251 to 1 µM. As for `FC(F)(F)c1cc(NCc2cn(-c3cccc(Cl)c3)nn2)ccn1` [Compound 003, N-((1-(3-Chlorophenyl)-1H-1,2,3-triazol-4-yl)methyl)-2-(trifluoromethyl)pyridin-4-amine], the figure is 0.051 to 0.25 µM; as for `FC(F)(F)c1cc(NCc2cn(-c3ccc(Cl)cc3)nn2)ccn1` [Compound 008, N-((1-(4-chlorophenyl)-1H-1,2,3-triazol-4-yl)methyl)-2-(trifluoromethyl)pyridin-4-amine], 0.051 to 0.25 µM. As to `Fc1cccc(-n2cc(CNc3ccnc(C(F)(F)F)c3)nn2)c1` [Compound 009, N-((1-(3-Fluorophenyl)-1H-1,2,3-triazol-4-yl)methyl)-2-(trifluoromethyl)pyridin-4-amine], the IC50 fell in the range of 0.251 to 1 µM.

Turning to `Fc1ccc(-n2cc(CNc3ccnc(C(F)(F)F)c3)nn2)cc1` [Compound 010, N-((1-(4-Fluorophenyl)-1H-1,2,3-triazol-4-yl)methyl)-2-(trifluoromethyl)pyridin-4-amine], the concentration for half-maximal inhibition (IC50) fell in the range of 0.051 to 0.25 µM. Turning to `FC(F)(F)Oc1cccc(-n2cc(CNc3ccnc(C(F)(F)F)c3)nn2)c1` [Compound 011, N-((1-(3-(Trifluoromethoxy)phenyl)-1H-1,2,3-triazol-4-yl)methyl)-2-(trifluoromethyl)pyridin-4-amine], the IC50 lay in the range of 0.051 to 0.25 µM.

`N#Cc1ccc(-n2cc(CNc3ccnc(C(F)(F)F)c3)nn2)cc1` [Compound 013, 4-(4-(((2-(trifluoromethyl)pyridin-4-yl)amino)methyl)-1H-1,2,3-triazol-1-yl)benzonitrile] yielded an IC50 of 0.251 to 1 µM. In turn, `FC(F)(F)c1ccc(-n2cc(CNc3ccnc(C(F)(F)F)c3)nn2)cc1` [Compound 014, 2-(Trifluoromethyl)-N-((1-(4-(trifluoromethyl)phenyl)-1H-1,2,3-triazol-4-yl)methyl)pyridin-4-amine] yielded an IC50 of 0.051 to 0.25 µM. Regarding `CSc1cccc(-n2cc(CNc3ccnc(C(F)(F)F)c3)nn2)c1` [Compound 015, N-((1-(3-(Methylthio)phenyl)-1H-1,2,3-triazol-4-yl)methyl)-2-(trifluoromethyl)pyridin-4-amine], the IC50 was 0.051 to 0.25 µM. For `FC(F)(F)c1cc(NCc2cn(-c3ccc(CN4CCOCC4)cc3)nn2)ccn1` [Compound 019, N-((1-(4-(Morpholinomethyl)phenyl)-1H-1,2,3-triazol-4-yl)methyl)-2-(trifluoromethyl)pyridin-4-amine], the IC50 lay in the range of 0.251 to 1 µM.

The compound `Fc1ccc(-n2cc(CNc3ccnc(C(F)(F)F)c3)nn2)cc1F` [Compound 020, N-((1-(3,4-Difluorophenyl)-1H-1,2,3-triazol-4-yl)methyl)-2-(trifluoromethyl)pyridin-4-amine] yielded an IC50 of 0.051 to 0.25 µM. Next, `COc1cc(-n2cc(CNc3ccnc(C(F)(F)F)c3)nn2)ccc1Br` [Compound 023, N-((1-(4-Bromo-3-methoxyphenyl)-1H-1,2,3-triazol-4-yl)methyl)-2-(trifluoromethyl)pyridin-4-amine]: 0.251 to 1 µM; `Fc1cc(Br)ccc1-n1cc(CNc2ccnc(C(F)(F)F)c2)nn1` [Compound 024, N-((1-(4-Bromo-2-fluorophenyl)-1H-1,2,3-triazol-4-yl)methyl)-2-(trifluoromethyl)pyridin-4-amine]: 0.051 to 0.25 µM.

Compound `Fc1ccc(-n2cc(CNc3ccnc(C(F)(F)F)c3)nn2)cc1Cl` [Compound 027, N-((1-(3-Chloro-4-fluorophenyl)-1H-1,2,3-triazol-4-yl)methyl)-2-(trifluoromethyl)pyridin-4-amine] came in with an IC50 of 0.251 to 1 µM. `CN(c1ccccc1)c1ccc(-n2cc(CNc3ccnc(C(F)(F)F)c3)nn2)cc1` [Compound 029, N-((1-(4-(Methyl(phenyl)amino)phenyl)-1H-1,2,3-triazol-4-yl)methyl)-2-(trifluoromethyl)pyridin-4-amine] displayed an IC50 of 0.051 to 0.25 µM. Next, `FC(F)(F)c1cc(NCc2cn(-c3ccc(Oc4ccccn4)c(Cl)c3)nn2)ccn1` [Compound 034, N-((1-(3-Chloro-4-(pyridin-2-yloxy)phenyl)-1H-1,2,3-triazol-4-yl)methyl)-2-(trifluoromethyl)pyridin-4-amine]: at most 0.05 µM; `FC(F)(F)c1cc(SCc2cn(-c3ccc(Cl)cc3)nn2)ccn1` [Compound 055, 4-(((1-(4-chlorophenyl)-1H-1,2,3-triazol-4-yl)methyl)thio)-2-(trifluoromethyl)pyridine]: 0.251 to 1 µM; `FC(F)(F)c1cc(SCc2cn(-c3ccc(Br)cc3)nn2)ccn1` [Compound 058, 4-(((1-(4-Bromophenyl)-1H-1,2,3-triazol-4-yl)methyl)thio)-2-(trifluoromethyl)pyridine]: 0.051 to 0.25 µM. For `FC(F)(F)c1cc(SCc2cn(-c3ccc(Cl)c(Cl)c3)nn2)ccn1` [Compound 059, 4-(((1-(3,4-Dichlorophenyl)-1H-1,2,3-triazol-4-yl)methyl)thio)-2-(trifluoromethyl)pyridine], the IC50 was in the range of 0.051 to 0.25 µM. In the case of `FC(F)(F)c1nccc(SCc2cn(-c3ccc(Cl)cc3)nn2)n1` [Compound 060, 4-(((1-(4-chlorophenyl)-1H-1,2,3-triazol-4-yl)methyl)thio)-2-(trifluoromethyl)pyrimidine], the IC50 fell in the range of 0.251 to 1 µM. As for `COc1ccc(-n2cc(CSc3ccnc(C(F)(F)F)c3)nn2)cc1` [Compound 062, 4-(((1-(4-methoxyphenyl)-1H-1,2,3-triazol-4-yl)methyl)thio)-2-(trifluoromethyl)pyridine], the figure is 0.251 to 1 µM; as for `Fc1cc(-n2cc(CSc3ccnc(C(F)(F)F)c3)nn2)ccc1OC(F)(F)F` [Compound 064, 4-(((1-(3-fluoro-4-(trifluoromethoxy)phenyl)-1H-1,2,3-triazol-4-yl)methyl)thio)-2-(trifluoromethyl)pyridine], 0.051 to 0.25 µM.

Turning to `FC(F)(F)c1cc(SCc2cnc(-c3ccc(Cl)cc3)s2)ccn1` [Compound 067, 2-(4-Chlorophenyl)-5-(((2-(trifluoromethyl)pyridin-4-yl)thio)methyl) thiazole], the IC50 was 0.251 to 1 µM. In the case of `COc1c(C)cc(-c2ncc(CNc3ccnc(C(F)(F)F)c3)s2)cc1C` [Compound 075, N-((2-(4-Methoxy-3,5-dimethylphenyl)thiazol-5-yl)methyl)-2-(trifluoromethyl)pyridin-4-amine], the IC50 was 0.251 to 1 µM. In turn, `N#Cc1ccc(-c2nc(CNc3ccnc(C(F)(F)F)c3)cs2)cc1` [Compound 085, 4-(4-(((2-(Trifluoromethyl)pyridin-4-yl)amino)methyl)thiazol-2-yl)benzonitrile] had a half-maximal inhibitory concentration (IC50) of 0.251 to 1 µM.

`COc1ccc(-c2nc(CNc3ccnc(C(F)(F)F)c3)cs2)cc1` [Compound 086, N-((2-(4-Methoxyphenyl)thiazol-4-yl)methyl)-2-(trifluoromethyl)pyridin-4-amine] registered an IC50 of 0.251 to 1 µM. `FC(F)(F)c1cc(NCc2csc(-c3cccc(Oc4ccccc4)c3)n2)ccn1` [Compound 089, N-((2-(3-Phenoxyphenyl)thiazol-4-yl)methyl)-2-(trifluoromethyl)pyridin-4-amine] had an IC50 of 0.051 to 0.25 µM. As for `O=C(c1cccc(-c2nc(CNc3ccnc(C(F)(F)F)c3)cs2)c1)C1CC1` [Compound 090, Cyclopropyl(3-(4-(((2-(trifluoromethyl)pyridin-4-yl)amino)methyl)thiazol-2-yl)phenyl)methanone], the figure is 0.251 to 1 µM. As for `FC(F)(F)c1cc(NCc2ncc(-c3ccc(Cl)nc3)cn2)ccn1` [Compound 099, N-((5-(6-Chloropyridin-3-yl)pyrimidin-2-yl)methyl)-2-(trifluoromethyl)pyridin-4-amine], the IC50 was 0.251 to 1 µM. Next, `FC(F)(F)c1cc(SCc2ccc(-c3ccc(Oc4ccccc4)cc3)cn2)ccn1` [Compound 109, 4-(((5-(4-phenoxyphenyl)pyridin-2-yl)methyl)thio)-2-(trifluoromethyl)pyridine]: 0.251 to 1 µM.

The compound `FC(F)(F)c1cc(SCc2ccc(-c3ccc(Cl)nc3)cc2)ccn1` [Compound 110, 4-((4-(6-Chloropyridin-3-yl)benzyl)thio)-2-(trifluoromethyl)pyridine] returned an IC50 of 0.251 to 1 µM. `FC(F)(F)c1cc(SCc2ccc(-c3cnc(Cl)nc3)cn2)ccn1` [Compound 113, 2-Chloro-5-(6-(((2-(trifluoromethyl)pyridin-4-yl)thio)methyl)pyridin-3-yl)pyrimidine] returned an IC50 of 0.251 to 1 µM. Consider `COc1ncc(-c2ccc(CSc3ccnc(C(F)(F)F)c3)nc2)cc1Cl` [Compound 115, 5-Chloro-6-methoxy-6′-(((2-(trifluoromethyl)pyridin-4-yl)thio)methyl)-3,3′-bipyridine], for which the IC50 was in the range of 0.251 to 1 µM.

Compound `FC(F)(F)c1cc(SCc2nc3cc(Cl)ccc3[nH]2)ccn1` [Compound 123, 5-Chloro-2-(((2-(trifluoromethyl)pyridin-4-yl)thio)methyl)-1H-benzo[d]imidazole] gave an IC50 of 0.251 to 1 µM. As for `FC(F)(F)c1nc(Cl)cc(SCc2nc3cc(Oc4ccccc4)ccc3[nH]2)n1` [Compound 124, 2-(((6-Chloro-2-(trifluoromethyl)pyrimidin-4-yl)thio)methyl)-5-phenoxy-1H-benzo[d]imidazole], the IC50 was in the range of 0.251 to 1 µM.
